According to article PMC4862670, “Biochemical Effect of Resistance Mutations against Synergistic Inhibitors of RSV RNA Polymerase” (PLoS ONE, 2016):
Several values for one entry are separate records, joined by “and”; a condition that tells them apart may be missing. Equal entries are not always repeated. Where two headings read alike, the source gives them in different places.

Assays:
[1] = molecular target: T1, QUAD RSV L-P (M628L, A789V, L795I, I796V) (Human respiratory syncytial virus A, UniProt P28887, A789V/I796V/L795I/M628L); test: Single nucleotide incorporation (primer extension) by recombinant RSV L-P, QUAD mutant; format: biochemical; details: for Resistance (QUADdiscrimination / WTdiscrimination): QUAD vs WT RSV L-P; for Km / Discrimination (Km NTP analog / Km NTP): QUAD RSV L-P; for Km: single nucleotide incorporation
WT RSV L-P [2] = molecular target: T2, WT RSV L-P (Human respiratory syncytial virus A, UniProt P28887); format: biochemical
T2 construct: made in house; host or cells: insect cells
Description: The recombinant RSV polymerase complex was produced by co-expressing the L and P proteins of RSV in insect cells as previously described. Unless otherwise specified, RNA polymerase reaction samples consisted of 0.2 μM of an oligonucleotide template sequence derived from the RSV leader promoter (5'-[…]-3') and 0.2 μM recombinant RSVL-P polymerase together with 200 μM 5'-pACGC primer, mixed in a buffer containing 20 mM Tris pH 7.5, 10 mM KCl, 2 mM dithiothreitol, 0.5% triton X-100, 10% DMSO, 0.2 U/μL RNasin (Ambion), and 6 mM MgCl2. Reactions were started by adding specific NTPs to a final volume of 10 μL and incubated at 30°C. The radioisotope tracer used for this assay was α^33P-GTP. To measure the incorporation of GTP analogs, the oligonucleotide template sequence was modified to 5'-[…]-3'. Reactions were stopped after 30 minutes by adding an equal volume of gel loading buffer (Ambion). Samples were denatured at 95°C for 5 minutes, and run for 1.5 hours at 80 W in a 22.5% polyacrylamide urea sequencing gel. After the gel was dried, the product of migration was exposed to a phosphor-screen and scanned on a Typhoon phosphorimager (GE Healthcare) and quantified using ImageQuant (GE Healthcare). For each enzyme, the level of NTP analog discrimination was calculated as Km NTP analog / Km NTP, and the corresponding resistance as Mutantdiscrimination / WTdiscrimination.

Y1631H RSV polymerase = Y1631H RSV polymerase (Human respiratory syncytial virus A, UniProt P28887, Y1631H); test: Single nucleotide incorporation, Y1631H mutant; format: biochemical
[3] = molecular target: T1, QUAD RSV L-P (M628L, A789V, L795I, I796V); details: cited from earlier work
WT RSV L-P [4] = molecular target: T2, WT RSV L-P; details: cited from earlier work
WT RSV L-P [5] = molecular target: T2, WT RSV L-P; format: biochemical; details: 10 μM
RSV L-P dimer = molecular target: T3, RSV L-P dimer (Human respiratory syncytial virus A, UniProt P28887); test: Ni-NTA pull-down assay of RSV L-P; format: binding; details: 10 μM, 30 minutes pre-incubation
T3 construct: made in house; host or cells: insect cells
Description: The enzyme-inhibitor complex was pre-incubated for 30 minutes, after which nickel beads were used to pull down the histidine-tagged P subunit. The bound protein was washed on the beads and visualized by SDS PAGE. When the experiment was performed in the presence of DMSO, the untagged L subunit remained noncovalently bound to P (Fig 6A, lane 1).
Beads were collected by centrifugation, and washed in 500 μL buffer containing 20mM Tris pH 7.5, 10 mM KCl, 6 mM MgCl2, 0.01% Triton X-100, and 2 mM DTT. Beads were resuspended in 20 μL loading buffer (4% SDS, 20% glycerol, 0.12M Tris pH 7, and 10% BME) and heated for 5 minutes at 95°C. Samples were run on a 4% to 12% SDS PAGE gel alongside PageRuler prestained marker (Invitrogen) and stained using SimplyBlue SafeStain (Thermo Fisher Scientific).

[6] = molecular target: RSV polymerase containing the Y1631H mutation in the L subunit (Human respiratory syncytial virus A, UniProt P28887, Y1631H); test: Biotin-primer extension RdRp assay, Y1631H; format: biochemical; details: Y1631H IC50 vs WT IC50
[7] = system: [N-]=[N+]=N[C@]1(COP(=O)(O)OP(=O)(O)OP(=O)(O)O)O[C@@H](n2ccc(N)nc2=O)[C@H](F)[C@@H]1O; test: purified protein, by the assay type; details: pH 7.5
[8] = system: Nc1ccn([C@@H]2O[C@](CCl)(COP(=O)(O)OP(=O)(O)OP(=O)(O)O)[C@@H](O)[C@H]2O)c(=O)n1; test: purified protein, by the assay type; details: pH 7.5
[9] = system: WT RSV L polymerase-dependent luciferase activity; test: cells; format: cell-based, Respiratory syncytial virus (RSV); details: human respiratory syncytial virus, HEp-2 cells, minigenome luciferase
[10] = system: QUAD RSV L polymerase-dependent luciferase activity; test: cells; format: cell-based, Respiratory syncytial virus (RSV), HEp-2 cells
[11] = WT RSV L-P, single nucleotide incorporation

Compound: Nc1ccn([C@@H]2O[C@](CBr)(COP(=O)(O)OP(=O)(O)OP(=O)(O)O)[C@@H](O)[C@H]2F)c(=O)n1 [bromomethyl (BrCH2)]
- Resistance (QUADdiscrimination / WTdiscrimination) [1]: > 3 fold

Compound: ATP [reference compound]
- Km (WT RSV L-P [2]; [11]): 2.2 ± 0.2 µM
- Km [1]: 1.8 ± 0.3 µM

Compound: C[C@@H](F)[C@]1(COP(=O)(O)OP(=O)(O)OP(=O)(O)O)O[C@@H](n2ccc(N)nc2=O)[C@H](F)[C@@H]1O [1-fluoroethyl (FCH3CH2)]
- Resistance (QUADdiscrimination / WTdiscrimination) [1]: > 3 fold

Compound: [N-]=[N+]=N[C@]1(COP(=O)(O)OP(=O)(O)OP(=O)(O)O)O[C@@H](n2ccc(N)nc2=O)[C@H](F)[C@@H]1O [2'F-4'N3-CTP]
- Resistance (QUADdiscrimination / WTdiscrimination) ([1]; listed as azido (N3-)): no resistance

Compound: CTP [reference compound]
- Km (Y1631H RSV polymerase): 0.042 ± 0.009 µM
- Km ([3]; QUAD RSV L-P, n = 2, read-out: Km CTP): 0.028 ± 0.005 µM
- Km (WT RSV L-P [4]; WT RSV L-P, n = 4, read-out: Km CTP): 0.056 ± 0.01 µM

Compound: Nc1ccn([C@@H]2O[C@](CCl)(COP(=O)(O)OP(=O)(O)OP(=O)(O)O)[C@@H](O)[C@H]2F)c(=O)n1 [ALS-8112-TP, 2'F-4'ClCH2-cytidine triphosphate]
- Discrimination of the CTP analog (Y1631H RSV polymerase): 18 fold
- Resistance (increase in discrimination by QUAD) ([3]; QUAD vs WT RSV L-P): 4.6 fold
- Discrimination (WT RSV L-P [4]; WT RSV polymerase): 13 fold
- Resistance (QUADdiscrimination / WTdiscrimination) ([1]; listed as chloromethyl (ClCH2)): > 3 fold

Compound: CSC[C@]1(COP(=O)(O)OP(=O)(O)OP(=O)(O)O)O[C@@H](n2ccc(N)nc2=O)[C@H](F)[C@@H]1O [methyl-thio-methyl (CH3SCH2)]
- Resistance (QUADdiscrimination / WTdiscrimination) [1]: no resistance

Compound: Nc1ccn([C@@H]2O[C@](CF)(COP(=O)(O)OP(=O)(O)OP(=O)(O)O)[C@@H](O)[C@H]2F)c(=O)n1 [fluoromethyl (FCH2)]
- Resistance (QUADdiscrimination / WTdiscrimination) [1]: > 3 fold

Compound: O=C(NC1CC1)c1cc2c(s1)-c1ccccc1N(C(=O)c1ccc(NC(=O)c3cccnc3N3CCC4(CC3)COC4)cc1)CC2 [AZ-27]
- Inhibition of +1 and +2 RNA products (WT RSV L-P [5]; 30-minute reaction): no inhibition
- Inhibition of +4–7 RNA products (WT RSV L-P [5]; 30-minute reaction, position +4 and beyond): 75–85%
- Inhibition behavior with respect to NTPs (WT RSV L-P [5]; ATP+CTP from 1 to 100 μM): non-competitive inhibition behavior
- Effect on L binding to P (L-P complex stability) (RSV L-P dimer): did not inhibit the ability of L to bind to P
- Resistance compared to the WT enzyme [6]: 940 fold

Compound: (Human respiratory syncytial virus A2)
- Km [7]: 0.62 ± 0.042 µM
- Km [8]: 19.7 ± 6.7 µM

Compound: GTP [reference compound]
- Km (WT RSV L-P [2]; [11]): 1.1 ± 0.4 µM
- Km [1]: 0.3 ± 0.1 µM

Compound: Nc1ccn([C@@H]2O[C@@](CO)(CBr)[C@@H](O)[C@H]2F)c(=O)n1 [2'F-4'BrCH2-cytidine]
- EC50 [9]: 1600 ± 600 nM
- Loss in inhibition potency in the presence of the QUAD mutations ([10]; QUAD vs WT minigenome): 47 fold

Compound: 2'F-4'ClCH2-ATP
- Chain termination effect (WT RSV L-P [2]): immediate chain terminator
- Discrimination (Km NTP analog / Km NTP) (WT RSV L-P [2]): 12 fold and 12±2.5 fold
- Km (WT RSV L-P [2]): 27 ± 7.8 µM
- Discrimination (Km NTP analog / Km NTP) [1]: 12.9±1.1 fold
- Km [1]: 23.6 ± 5.8 µM
- Resistance (QUADdiscrimination / WTdiscrimination) [1]: 1.1 fold

Compound: Nc1ccn([C@@H]2O[C@@](COP(=O)(O)OP(=O)(O)OP(=O)(O)O)(C3CC3)[C@@H](O)[C@H]2F)c(=O)n1 [cyclopropyl (CH2CH2CH2)]
- Resistance (QUADdiscrimination / WTdiscrimination) [1]: no resistance

Compound: [N-]=[N+]=N[C@]1(CO)O[C@@H](n2ccc(N)nc2=O)[C@H](F)[C@@H]1O [2'F-4'N3-cytidine]
- EC50 [9]: 1300 ± 300 nM
- EC50 ([10]; human respiratory syncytial virus, QUAD L, HEp-2 cells, minigenome luciferase): 2200 ± 500 nM

Compound: 2'F-4'ClCH2-GTP
- Chain termination effect (WT RSV L-P [2]): did not completely block RNA synthesis
- Discrimination (Km NTP analog / Km NTP) (WT RSV L-P [2]): 5.6±0.6 fold
- Km (WT RSV L-P [2]): 5.8 ± 1.4 µM
- Discrimination (Km NTP analog / Km NTP) [1]: 94.4 fold and 94.4±17.7 fold
- Km [1]: 31.1 ± 15 µM
- Resistance (QUADdiscrimination / WTdiscrimination) [1]: 17 fold
